We go through 25 compounds from patent US11479539B2, “Small molecule modulators of the BTB domain of Keap1” (MedImmune Limited, priority 2017, dated 2022).

SMILES strings stand for the structures.

The target in the experiment is Keap1 (Homo sapiens (Human), UniProt Q14145). Put plainly: HEK293 ARE luciferase assay. The format is cell-based. To be noted: HEK-293 ARE firefly luciferase transiently transfected cells; 18 h incubation; mean of 1 to 20 individual measurements. An excerpt: The purpose of this assay is to identify small molecule inhibitors of Keap1, preventing Keap1 binding to Nrf2, and thus activating the Nrf2 signalling pathway in HEK-293 ARE firefly luciferase transiently transfected cells. HEK-293 cells express wild-type Keap1 protein and therefore have low constitutive levels of Nrf2 protein and Nrf2-dependent transcription. […] When Keap1 is inhibited, Nrf2 signalling is activated, and there is an increase in luciferase expression and light emission.
Sequence of Keap1 (Q14145 whole entry): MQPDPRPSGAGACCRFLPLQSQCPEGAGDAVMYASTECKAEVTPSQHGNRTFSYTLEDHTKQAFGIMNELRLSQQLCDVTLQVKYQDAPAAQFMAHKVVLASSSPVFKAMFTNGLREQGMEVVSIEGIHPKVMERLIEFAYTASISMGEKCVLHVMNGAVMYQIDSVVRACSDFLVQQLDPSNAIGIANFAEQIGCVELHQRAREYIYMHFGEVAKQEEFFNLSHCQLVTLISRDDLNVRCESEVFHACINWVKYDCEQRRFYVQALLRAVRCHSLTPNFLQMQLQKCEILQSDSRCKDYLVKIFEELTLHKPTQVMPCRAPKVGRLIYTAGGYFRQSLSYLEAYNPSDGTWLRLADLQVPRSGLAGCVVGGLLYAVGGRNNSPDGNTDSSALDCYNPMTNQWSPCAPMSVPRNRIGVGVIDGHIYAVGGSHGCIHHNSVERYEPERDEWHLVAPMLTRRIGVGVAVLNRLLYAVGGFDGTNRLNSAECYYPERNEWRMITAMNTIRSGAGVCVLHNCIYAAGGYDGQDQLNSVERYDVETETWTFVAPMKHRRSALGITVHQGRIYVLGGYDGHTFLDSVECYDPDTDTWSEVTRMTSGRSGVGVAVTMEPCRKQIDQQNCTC
Cryopreserved HEK ARE luciferase cells were rapidly thawed in a 37° C. water bath and resuspended in assay culture medium (DMEM, 10% FCS, 2 mM L-glutamine). The cell suspension was pelleted by centrifugation ([…]; 300 g) using a Heraeus benchtop centrifuge. Supernatant was removed and the pellet was gently resuspended in 5 mL culture medium per vial. Cell viability and cell number was measured using an Invitrogen Countess automated cell counter (typical viability 80%), and cells were diluted to a density of 5.0×10^5 cells/mL.
Cells were then plated out into white 384-well plates (Greiner 781080) using a Multidrop Combi, 20 μL/well, to give 10,000 cells/well. As appropriate, test compounds had been added to wells prior to dispensing cells using an Echo 555 acoustic dispenser (Labcyte). Plates were left at room temperature for ˜10 min to promote even cell settling across the plate before incubation for 18 h at 37° C., 95% humidity and 5% CO2.
After 18 h incubation, plates were removed from the incubator and allowed to cool to room temperature for 30 min, before 10 μL per well SteadyGlo reagent detection reagent was added (as per manufacturer's instructions, 10 min before required 10 mL room temperature buffer was added to one vial of lyophilised substrate and inverted several times to fully dissolve). Plates were then incubated in the dark for 30 min before reading on an Envision plate reader.
Compounds were acoustically dispensed using a Labcyte Echo, using a 10 pt dose curve with a top concentration of 100 μM. Assay wells were backfilled with DMSO to a total of 60 nL to maintain 0.3% (v/v) DMSO through the assay.
The Stimulator signal was defined using 30 μM tert-butyl hydroquinone (tBHQ) and the Neutral signal by DMSO vehicle control. All calculations were performed using GeneData.
In IBIS Column Calculations, Assay Type was set to ‘Stimulator’, and the Activity Threshold was set to 50.
The mean values were calculated from anywhere from 1 to 20 individual measurements.
As for `COC1(c2ncc(F)cc2-c2ccc(C(F)(F)F)nc2)C=C(C#N)C(=O)C(C)(C)C1` (single isomer, unassigned) [Compound 90, 3-[5-fluoro-3-[6-(trifluoromethyl)-3-pyridyl]-2-pyridyl]-3-methoxy-5,5-dimethyl-6-oxo-cyclohexene-1-carbonitrile], the EC50 is 11 nM. In other words, the double-digit nanomolar range.

For the compound `COC1(c2ncc(F)cc2-c2c(C)nn(C)c2C)C=C(C#N)C(=O)C(C)(C)C1` (single isomer, unassigned) [Compound 92, 3-[5-fluoro-3-(1,3,5-trimethylpyrazol-4-yl)-2-pyridyl]-3-methoxy-5,5-dimethyl-6-oxo-cyclohexene-1-carbonitrile], the EC50 was 67 nM.

In turn, `COC1(c2ncc(F)cc2-c2sc(C)nc2C)C=C(C#N)C(=O)C(C)(C)C1` (single isomer, unassigned) [Compound 93, 3-[3-(2,4-dimethylthiazol-5-yl)-5-fluoro-2-pyridyl]-3-methoxy-5,5-dimethyl-6-oxo-cyclohexene-1-carbonitrile] gave an EC50 of 5 nM.

In turn, `C/C=C/c1cc(F)cnc1C1(OC)C=C(C#N)C(=O)C(C)(C)C1` (single isomer, unassigned) [Compound 94, 3-{5-fluoro-3-[(1E)-prop-1-en-1-yl]pyridin-2-yl}-3-methoxy-5,5-dimethyl-6-oxocyclohex-1-ene-1-carbonitrile] showed an EC50 of 21 nM.

As for `COC1(c2nc(C)c(Br)s2)C=C(C#N)C(=O)C(C)(C)C1` (single isomer, unassigned) [Compound 98, 3-(5-bromo-4-methyl-1,3-thiazol-2-yl)-3-methoxy-5,5-dimethyl-6-oxocyclohex-1-ene-1-carbonitrile], the EC50 was found to be 79 nM.

Take `COC1(c2nc(C)c(-c3ccccn3)s2)C=C(C#N)C(=O)C(C)(C)C1` (single isomer, unassigned) [Compound 99, 3-methoxy-5,5-dimethyl-3-[4-methyl-5-(pyridin-2-yl)-1,3-thiazol-2-yl]-6-oxocyclohex-1-ene-1-carbonitrile]: the midpoint of the response, the EC50, lay at 66 nM.

The compound `COC1(c2ncc(F)cc2C#CC(C)C)C=C(C#N)C(=O)C(C)(C)C1` (single isomer, unassigned) [Compound 100, 3-[5-fluoro-3-(3-methylbut-1-yn-1-yl)pyridin-2-yl]-3-methoxy-5,5-dimethyl-6-oxocyclohex-1-ene-1-carbonitrile] showed an EC50 of 77 nM.

`CCCc1cccnc1C1(OC)C=C(C#N)C(=O)C(C)(C)C1` (single isomer, unassigned) [Compound 101, 3-methoxy-5,5-dimethyl-6-oxo-3-(3-propylpyridin-2-yl)cyclohex-1-ene-1-carbonitrile] gave an EC50 of 33 nM.

Consider `COC1(c2nc(C)c(-c3ccccn3)s2)C=C(C#N)C(=O)C2(CC2)C1` (single isomer, unassigned) [Compound 102, 7-methoxy-7-[4-methyl-5-(pyridin-2-yl)-1,3-thiazol-2-yl]-4-oxospiro[2.5]oct-5-ene-5-carbonitrile], for which the concentration for a half-maximal effect (EC50) amounted to 73 nM.

Take `COC1(c2cccc(-c3cncnc3)n2)C=C(C#N)C(=O)C(C)(C)C1` (single isomer, unassigned) [Compound 104, 3-methoxy-5,5-dimethyl-6-oxo-3-(6-(pyrimidin-5-yl)pyridin-2-yl)cyclohex-1-ene-1-carbonitrile]: a half-maximal response (EC50) required 45 nM.

`COC1(c2cccc(-c3cnn(C)c3)n2)C=C(C#N)C(=O)C(C)(C)C1` (single isomer, unassigned) [Compound 107, 3-methoxy-5,5-dimethyl-3-(6-(1-methyl-1H-pyrazol-4-yl)pyridin-2-yl)-6-oxocyclohex-1-ene-1-carbonitrile]: the EC50 is 37 nM. This EC50 and that of the compound before are within 1.5-fold of each other.

Compound `COC1(c2ncc(F)cc2-c2ccc3nc(C)cn3c2)C=C(C#N)C(=O)C(C)(C)C1` (single isomer, unassigned) [Compound 201, 3-[5-fluoro-3-(2-methylimidazo[1,2-a]pyridin-6-yl)pyridin-2-yl]-3-methoxy-5,5-dimethyl-6-oxocyclohex-1-ene-1-carbonitrile] gave an EC50 of 182 nM. Compared with the last compound, the EC50 is about 4.9-fold higher.

The compound `COC1(c2ncc(F)cc2-c2ccc3ccnn3c2)C=C(C#N)C(=O)C(C)(C)C1` (single isomer, unassigned) [Compound 203, 3-[5-fluoro-3-(pyrazolo[1,5-a]pyridin-6-yl)pyridin-2-yl]-3-methoxy-5,5-dimethyl-6-oxocyclohex-1-ene-1-carbonitrile] registered an EC50 of 6 nM.

Regarding `COC1(c2ncc(C)cn2)C=C(C#N)C(=O)C(C)(C)C1` (single isomer, unassigned) [Compound 204, 3-methoxy-5,5-dimethyl-3-(5-methylpyrimidin-2-yl)-6-oxocyclohex-1-ene-1-carbonitrile], a half-maximal response (EC50) required 9 nM.

Turning to `COC1(c2ncc(F)cc2-c2cnc3c(c2)OCCN3C)C=C(C#N)C(=O)C(C)(C)C1` (single isomer, unassigned) [Compound 205, 3-[5-fluoro-3-(4-methyl-3,4-dihydro-2H-pyrido[3,2-b][1,4]oxazin-7-yl)pyridin-2-yl]-3-methoxy-5,5-dimethyl-6-oxocyclohex-1-ene-1-carbonitrile], the concentration for a half-maximal effect (EC50) was 52 nM.

`COC1(c2ncc(Cl)cc2C(F)F)C=C(C#N)C(=O)C(C)(C)C1` (single isomer, unassigned) [Compound 206, 3-[5-chloro-3-(difluoromethyl)pyridin-2-yl]-3-methoxy-5,5-dimethyl-6-oxocyclohex-1-ene-1-carbonitrile] had an EC50 of 159 nM.

Compound `COC1(c2ncc(F)cc2-c2ccnc(S(=O)(=O)N(C)C)c2)C=C(C#N)C(=O)C(C)(C)C1` (single isomer, unassigned) [Compound 207, 2-[3-cyano-1-methoxy-5,5-dimethyl-4-oxocyclohex-2-en-1-yl]-5-fluoro-N,N-dimethyl[3,4′-bipyridine]-2′-sulfonamide] showed an EC50 of 48 nM. Compared with the last compound, the EC50 is about 3.3-fold lower.

As to `COC1(c2ncc(Cl)cc2C(F)(F)F)C=C(C#N)C(=O)C(C)(C)C1` (single isomer, unassigned) [Compound 208, 3-[5-chloro-3-(trifluoromethyl)pyridin-2-yl]-3-methoxy-5,5-dimethyl-6-oxocyclohex-1-ene-1-carbonitrile], the concentration giving a half-maximal response (EC50) is 231 nM.

The compound `COC1(c2ncc(F)cc2-c2cnnc(C)c2)C=C(C#N)C(=O)C(C)(C)C1` (single isomer, unassigned) [Compound 209, 3-[5-fluoro-3-(6-methylpyridazin-4-yl)pyridin-2-yl]-3-methoxy-5,5-dimethyl-6-oxocyclohex-1-ene-1-carbonitrile] returned an EC50 of 15 nM. Against the preceding compound, the EC50 is about 15-fold lower.

The compound `COC1(c2ncc(F)cc2-c2cnc(C(F)(F)F)nc2)C=C(C#N)C(=O)C(C)(C)C1` (single isomer, unassigned) [Compound 210, 3-{5-fluoro-3-[2-(trifluoromethyl)pyrimidin-5-yl]pyridin-2-yl}-3-methoxy-5,5-dimethyl-6-oxocyclohex-1-ene-1-carbonitrile] yielded an EC50 of 20 nM.

Regarding `COC1(c2ncc(C(F)(F)F)cn2)C=C(C#N)C(=O)C(C)(C)C1` (single isomer, unassigned) [Compound 211, 3-methoxy-5,5-dimethyl-6-oxo-3-[5-(trifluoromethyl)pyrimidin-2-yl]cyclohex-1-ene-1-carbonitrile], the EC50 is 4 nM.

As to `COC1(c2ncc(F)cc2-c2ccc3ncnn3c2)C=C(C#N)C(=O)C(C)(C)C1` (single isomer, unassigned) [Compound 212, 3-[5-fluoro-3-([1,2,4]triazolo[1,5-a]pyridin-6-yl)pyridin-2-yl]-3-methoxy-5,5-dimethyl-6-oxocyclohex-1-ene-1-carbonitrile], the EC50 came to 7 nM. Compared with the last compound, the EC50 is about 1.8-fold higher.

Consider `COC1(c2ncc(F)cc2-c2cncc(C(F)(F)F)c2)C=C(C#N)C(=O)C(C)(C)C1` (single isomer, unassigned) [Compound 215, 3-[5-fluoro-5′-(trifluoromethyl)[3,3′-bipyridin]-2-yl]-3-methoxy-5,5-dimethyl-6-oxocyclohex-1-ene-1-carbonitrile], for which the EC50 came out at 15 nM.

Consider `COC1(c2ncc(F)cn2)C=C(C#N)C(=O)C(C)(C)C1` (single isomer, unassigned) [Compound 216, 3-(5-fluoropyrimidin-2-yl)-3-methoxy-5,5-dimethyl-6-oxocyclohex-1-ene-1-carbonitrile], for which the midpoint of the response, the EC50, lay at 21 nM.

For `COC1(c2ncc(F)cc2-c2cnccc2C#N)C=C(C#N)C(=O)C(C)(C)C1` (single isomer, unassigned) [Compound 217, 2′-[3-cyano-1-methoxy-5,5-dimethyl-4-oxocyclohex-2-en-1-yl]-5′-fluoro[3,3′-bipyridine]-4-carbonitrile], a half-maximal response (EC50) required 12 nM. Compared with the last compound, the EC50 is about 1.8-fold lower.
